According to ChEMBL document CHEMBL4130367, “Click chemistry-based synthesis and anticancer activity evaluation of novel C-14 1,2,3-triazole dehydroabietic acid hybrids” (Eur J Med Chem, 2017):

Test system: not listed separately
Assay: Octanol-water partition coefficient, log P of the compound
Format: physicochemical
Conditions: not given

| SMILES | logP |
| --- | --- |
| CCOC(=O)c1cn(CC(=O)Nc2c(C(C)C)ccc3c2CC[C@H]2[C@](C)(C(=O)OC)CCC[C@]32C)nn1 | 3.97 |
| COC(=O)[C@]1(C)CCC[C@]2(C)c3ccc(C(C)C)c(NC(=O)Cn4cc(-c5ccccn5)nn4)c3CC[C@@H]12 | 4.05 |
| COC(=O)[C@]1(C)CCC[C@]2(C)c3ccc(C(C)C)c(NC(=O)Cn4cc(-c5ccccc5F)nn4)c3CC[C@@H]12 | 5.36 |
| COC(=O)[C@]1(C)CCC[C@]2(C)c3ccc(C(C)C)c(NC(=O)Cn4cc(-c5ccc([N+](=O)[O-])cc5)nn4)c3CC[C@@H]12 | 5.16 |
| COC(=O)[C@]1(C)CCC[C@]2(C)c3ccc(C(C)C)c(NC(=O)Cn4cc(-c5cc(OC)cc(OC)c5)nn4)c3CC[C@@H]12 | 5.24 |
| COC(=O)[C@]1(C)CCC[C@]2(C)c3ccc(C(C)C)c(NC(=O)Cn4cc(-c5cccs5)nn4)c3CC[C@@H]12 | 4.98 |
| COC(=O)[C@]1(C)CCC[C@]2(C)c3ccc(C(C)C)c(NC(=O)Cn4cc(CNc5nc(Cl)nc(Cl)n5)nn4)c3CC[C@@H]12 | 5.12 |
| COC(=O)[C@]1(C)CCC[C@]2(C)c3ccc(C(C)C)c(NC(=O)Cn4cc(-c5ccncc5)nn4)c3CC[C@@H]12 | 3.91 |
| COC(=O)[C@]1(C)CCC[C@]2(C)c3ccc(C(C)C)c(NC(=O)Cn4cc(-c5ccc(-c6ccccc6)cc5)nn4)c3CC[C@@H]12 | 6.99 |
| COC(=O)[C@]1(C)CCC[C@]2(C)c3ccc(C(C)C)c(NC(=O)Cn4cc(-c5cccnc5)nn4)c3CC[C@@H]12 | 4.13 |

Test system: MDA-MB-231
Assay: Cytotoxicity against human MDA-MB-231 cells assessed as reduction in cell viability after 72 hrs by MTT assay
Format: functional, cell-based
Conditions: MDA-MB-231, 72 h

| SMILES | IC50 |
| --- | --- |
| O=c1[nH]cc(F)c(=O)[nH]1 [FLUOROURACIL] | 24.5 µM |
| COC(=O)[C@]1(C)CCC[C@]2(C)c3ccc(C(C)C)c(NC(=O)CCl)c3CC[C@@H]12 | > 100 µM |
| CCOC(=O)c1cn(CC(=O)Nc2c(C(C)C)ccc3c2CC[C@H]2[C@](C)(C(=O)OC)CCC[C@]32C)nn1 | 21.3 µM |
| COC(=O)[C@]1(C)CCC[C@]2(C)c3ccc(C(C)C)c(NC(=O)Cn4cc(-c5ccccn5)nn4)c3CC[C@@H]12 | > 100 µM |
| COC(=O)[C@]1(C)CCC[C@]2(C)c3ccc(C(C)C)c(NC(=O)Cn4cc(-c5ccccc5F)nn4)c3CC[C@@H]12 | 10 µM |
| COC(=O)[C@]1(C)CCC[C@]2(C)c3ccc(C(C)C)c(N)c3CC[C@@H]12 | 24.1 µM |
| COC(=O)[C@]1(C)CCC[C@]2(C)c3ccc(C(C)C)c(NC(=O)Cn4cc(-c5ccc([N+](=O)[O-])cc5)nn4)c3CC[C@@H]12 | > 100 µM |
| COC(=O)[C@]1(C)CCC[C@]2(C)c3ccc(C(C)C)c(NC(=O)CN=[N+]=[N-])c3CC[C@@H]12 | 60.7 µM |
| COC(=O)[C@]1(C)CCC[C@]2(C)c3ccc(C(C)C)c(NC(=O)Cn4cc(-c5cc(OC)cc(OC)c5)nn4)c3CC[C@@H]12 | 1.4 µM |
| COC(=O)[C@]1(C)CCC[C@]2(C)c3ccc(C(C)C)c(NC(=O)Cn4cc(-c5cccs5)nn4)c3CC[C@@H]12 | 57.1 µM |
| COC(=O)[C@]1(C)CCC[C@]2(C)c3ccc(C(C)C)c(NC(=O)Cn4cc(CNc5nc(Cl)nc(Cl)n5)nn4)c3CC[C@@H]12 | > 100 µM |
| COC(=O)[C@]1(C)CCC[C@]2(C)c3ccc(C(C)C)c(NC(=O)Cn4cc(-c5ccncc5)nn4)c3CC[C@@H]12 | > 100 µM |
| COC(=O)[C@]1(C)CCC[C@]2(C)c3ccc(C(C)C)c(NC(=O)Cn4cc(-c5ccc(-c6ccccc6)cc5)nn4)c3CC[C@@H]12 | 8.9 µM |
| COC(=O)[C@]1(C)CCC[C@]2(C)c3ccc(C(C)C)c(NC(=O)Cn4cc(-c5cccnc5)nn4)c3CC[C@@H]12 | 41.9 µM |
| CC(C)[C@]12O[C@H]1[C@@H]1O[C@@]13[C@@]1(C)CCC4=C(COC4=O)[C@@H]1C[C@@H]1O[C@@]13C2=O [TRIPTONIDE] | 0.03 µM |

Test system: SK-OV-3
Assay: Cytotoxicity against human SKOV3 cells assessed as reduction in cell viability after 72 hrs by MTT assay
Format: functional, cell-based
Conditions: SK-OV-3, 72 h

| SMILES | IC50 |
| --- | --- |
| O=c1[nH]cc(F)c(=O)[nH]1 [FLUOROURACIL] | 20.8 µM |
| COC(=O)[C@]1(C)CCC[C@]2(C)c3ccc(C(C)C)c(NC(=O)CCl)c3CC[C@@H]12 | 69.7 µM |
| CCOC(=O)c1cn(CC(=O)Nc2c(C(C)C)ccc3c2CC[C@H]2[C@](C)(C(=O)OC)CCC[C@]32C)nn1 | 22.9 µM |
| COC(=O)[C@]1(C)CCC[C@]2(C)c3ccc(C(C)C)c(NC(=O)Cn4cc(-c5ccccn5)nn4)c3CC[C@@H]12 | > 100 µM |
| COC(=O)[C@]1(C)CCC[C@]2(C)c3ccc(C(C)C)c(NC(=O)Cn4cc(-c5ccccc5F)nn4)c3CC[C@@H]12 | 15.2 µM |
| COC(=O)[C@]1(C)CCC[C@]2(C)c3ccc(C(C)C)c(N)c3CC[C@@H]12 | 6.1 µM |
| COC(=O)[C@]1(C)CCC[C@]2(C)c3ccc(C(C)C)c(NC(=O)Cn4cc(-c5ccc([N+](=O)[O-])cc5)nn4)c3CC[C@@H]12 | 77.3 µM |
| COC(=O)[C@]1(C)CCC[C@]2(C)c3ccc(C(C)C)c(NC(=O)CN=[N+]=[N-])c3CC[C@@H]12 | > 100 µM |
| COC(=O)[C@]1(C)CCC[C@]2(C)c3ccc(C(C)C)c(NC(=O)Cn4cc(-c5cc(OC)cc(OC)c5)nn4)c3CC[C@@H]12 | 3.3 µM |
| COC(=O)[C@]1(C)CCC[C@]2(C)c3ccc(C(C)C)c(NC(=O)Cn4cc(-c5cccs5)nn4)c3CC[C@@H]12 | > 100 µM |
| COC(=O)[C@]1(C)CCC[C@]2(C)c3ccc(C(C)C)c(NC(=O)Cn4cc(CNc5nc(Cl)nc(Cl)n5)nn4)c3CC[C@@H]12 | 92.1 µM |
| COC(=O)[C@]1(C)CCC[C@]2(C)c3ccc(C(C)C)c(NC(=O)Cn4cc(-c5ccncc5)nn4)c3CC[C@@H]12 | > 100 µM |
| COC(=O)[C@]1(C)CCC[C@]2(C)c3ccc(C(C)C)c(NC(=O)Cn4cc(-c5ccc(-c6ccccc6)cc5)nn4)c3CC[C@@H]12 | 16 µM |
| COC(=O)[C@]1(C)CCC[C@]2(C)c3ccc(C(C)C)c(NC(=O)Cn4cc(-c5cccnc5)nn4)c3CC[C@@H]12 | > 100 µM |

Test system: MCF7
Assay: cells
Conditions: Homo sapiens, MCF7, 72 h
Description: Cytotoxicity against human MCF7 cells assessed as reduction in cell viability after 72 hrs by MTT assay

| SMILES | IC50 |
| --- | --- |
| O=c1[nH]cc(F)c(=O)[nH]1 [FLUOROURACIL] | 5.2 µM |
| COC(=O)[C@]1(C)CCC[C@]2(C)c3ccc(C(C)C)c(NC(=O)CCl)c3CC[C@@H]12 | 51.6 µM |
| CCOC(=O)c1cn(CC(=O)Nc2c(C(C)C)ccc3c2CC[C@H]2[C@](C)(C(=O)OC)CCC[C@]32C)nn1 | 16.1 µM |
| COC(=O)[C@]1(C)CCC[C@]2(C)c3ccc(C(C)C)c(NC(=O)Cn4cc(-c5ccccn5)nn4)c3CC[C@@H]12 | > 100 µM |
| COC(=O)[C@]1(C)CCC[C@]2(C)c3ccc(C(C)C)c(NC(=O)Cn4cc(-c5ccccc5F)nn4)c3CC[C@@H]12 | 19.4 µM |
| COC(=O)[C@]1(C)CCC[C@]2(C)c3ccc(C(C)C)c(N)c3CC[C@@H]12 | 31.1 µM |
| COC(=O)[C@]1(C)CCC[C@]2(C)c3ccc(C(C)C)c(NC(=O)Cn4cc(-c5ccc([N+](=O)[O-])cc5)nn4)c3CC[C@@H]12 | > 100 µM |
| COC(=O)[C@]1(C)CCC[C@]2(C)c3ccc(C(C)C)c(NC(=O)CN=[N+]=[N-])c3CC[C@@H]12 | 52.1 µM |
| COC(=O)[C@]1(C)CCC[C@]2(C)c3ccc(C(C)C)c(NC(=O)Cn4cc(-c5cc(OC)cc(OC)c5)nn4)c3CC[C@@H]12 | 8.9 µM |
| COC(=O)[C@]1(C)CCC[C@]2(C)c3ccc(C(C)C)c(NC(=O)Cn4cc(-c5cccs5)nn4)c3CC[C@@H]12 | > 100 µM |
| COC(=O)[C@]1(C)CCC[C@]2(C)c3ccc(C(C)C)c(NC(=O)Cn4cc(CNc5nc(Cl)nc(Cl)n5)nn4)c3CC[C@@H]12 | > 100 µM |
| COC(=O)[C@]1(C)CCC[C@]2(C)c3ccc(C(C)C)c(NC(=O)Cn4cc(-c5ccncc5)nn4)c3CC[C@@H]12 | > 100 µM |
| COC(=O)[C@]1(C)CCC[C@]2(C)c3ccc(C(C)C)c(NC(=O)Cn4cc(-c5ccc(-c6ccccc6)cc5)nn4)c3CC[C@@H]12 | 9.5 µM |
| COC(=O)[C@]1(C)CCC[C@]2(C)c3ccc(C(C)C)c(NC(=O)Cn4cc(-c5cccnc5)nn4)c3CC[C@@H]12 | > 100 µM |
| CC(C)[C@]12O[C@H]1[C@@H]1O[C@@]13[C@@]1(C)CCC4=C(COC4=O)[C@@H]1C[C@@H]1O[C@@]13C2=O [TRIPTONIDE] | 0.03 µM |

Test system: PC-3
Assay: Cytotoxicity against human PC3 cells assessed as reduction in cell viability after 72 hrs by MTT assay
Format: functional, cell-based
Conditions: PC-3, 72 h

| SMILES | IC50 |
| --- | --- |
| O=c1[nH]cc(F)c(=O)[nH]1 [FLUOROURACIL] | 13.7 µM |
| COC(=O)[C@]1(C)CCC[C@]2(C)c3ccc(C(C)C)c(NC(=O)CCl)c3CC[C@@H]12 | 71.2 µM |
| CCOC(=O)c1cn(CC(=O)Nc2c(C(C)C)ccc3c2CC[C@H]2[C@](C)(C(=O)OC)CCC[C@]32C)nn1 | 15.4 µM |
| COC(=O)[C@]1(C)CCC[C@]2(C)c3ccc(C(C)C)c(NC(=O)Cn4cc(-c5ccccn5)nn4)c3CC[C@@H]12 | > 100 µM |
| COC(=O)[C@]1(C)CCC[C@]2(C)c3ccc(C(C)C)c(NC(=O)Cn4cc(-c5ccccc5F)nn4)c3CC[C@@H]12 | 8.7 µM |
| COC(=O)[C@]1(C)CCC[C@]2(C)c3ccc(C(C)C)c(N)c3CC[C@@H]12 | 25.4 µM |
| COC(=O)[C@]1(C)CCC[C@]2(C)c3ccc(C(C)C)c(NC(=O)Cn4cc(-c5ccc([N+](=O)[O-])cc5)nn4)c3CC[C@@H]12 | > 100 µM |
| COC(=O)[C@]1(C)CCC[C@]2(C)c3ccc(C(C)C)c(NC(=O)CN=[N+]=[N-])c3CC[C@@H]12 | > 100 µM |
| COC(=O)[C@]1(C)CCC[C@]2(C)c3ccc(C(C)C)c(NC(=O)Cn4cc(-c5cc(OC)cc(OC)c5)nn4)c3CC[C@@H]12 | 5.2 µM |
| COC(=O)[C@]1(C)CCC[C@]2(C)c3ccc(C(C)C)c(NC(=O)Cn4cc(-c5cccs5)nn4)c3CC[C@@H]12 | > 100 µM |
| COC(=O)[C@]1(C)CCC[C@]2(C)c3ccc(C(C)C)c(NC(=O)Cn4cc(CNc5nc(Cl)nc(Cl)n5)nn4)c3CC[C@@H]12 | > 100 µM |
| COC(=O)[C@]1(C)CCC[C@]2(C)c3ccc(C(C)C)c(NC(=O)Cn4cc(-c5ccncc5)nn4)c3CC[C@@H]12 | > 100 µM |
| COC(=O)[C@]1(C)CCC[C@]2(C)c3ccc(C(C)C)c(NC(=O)Cn4cc(-c5ccc(-c6ccccc6)cc5)nn4)c3CC[C@@H]12 | 11.1 µM |
| COC(=O)[C@]1(C)CCC[C@]2(C)c3ccc(C(C)C)c(NC(=O)Cn4cc(-c5cccnc5)nn4)c3CC[C@@H]12 | 30 µM |
| CC(C)[C@]12O[C@H]1[C@@H]1O[C@@]13[C@@]1(C)CCC4=C(COC4=O)[C@@H]1C[C@@H]1O[C@@]13C2=O [TRIPTONIDE] | 0.02 µM |
